Experiment [1] deals with VEGF-induced retinal vascular permeability. As to the kind of experiment: Fluorescein angiography after intravitreal co-injection with VEGF164. As to conditions: mouse eye, co-injected intravitreally with 12.6 ng VEGF164 at 20-fold molar excess; 20 h after injection; qualitative. Type of experiment: in vivo, mouse (C57BL/6J). The method, then: (§1) Intravitreal injection to assess bioactivity on vascular permeability. C57BL/6J mice, 6-8 weeks of age, were cared for in accordance with the Association for Research in Vision and Opthalmology Statement for the Use of Animals in Ophthalmic and Vision Research. For anesthesia, each received intramuscularly 20 mg/kg ketamine, 20 mg/kg xylazine and 800 mg/kg urethane in 0.3-0.4 ml of phosphate buffered saline (PBS, 1.06 mM KH2PO4, 0.15 M NaCl and 3.00 mM Na2HPO4, pH 7.4). Under 10× magnification, 1 μl of murine VEGF164 (12.6 ng/μl in PBS; R&D Systems, Minneapolis, Minn.) was delivered through a 20° beveled glass pipette, with a tip diameter of 13-20 μm. The contralateral eye received an equal volume of PBS alone or PBS containing 12.6 ng VEGF164, and a 20-fold molar excess of PEDF (232 ng), ACT (278 ng), HSP47 (278 ng), PEDFpep (28.1 ng), ACTpep (29.7 ng), or CHIMERApep (28.2 ng).
Fluorescein angiograghy. Twenty hours after intravitreal injections, each pupil was dilated with one drop of 1% atropine sulfate. After intraperitoneal injection of 0.1 ml of 25% fluorescein, successive retina photographs were taken with a Kowa Genesis camera. The first photograph was taken within 20 seconds of the intraperitoneal fluorescein injection. […] Fluorescein leakage manifests as indistinct vascular borders progressing to diffusely hazy fluorescence.

For experiment [2] the test system is unchanged. As to the kind of experiment: Evans blue assay after intravitreal co-injection with VEGF164. Type of experiment: in vivo, mouse (C57BL/6J). As to conditions: mouse eye, co-injected intravitreally with VEGF164 at 20-fold molar excess. The method, then: as §1
Evans Blue assay. […]
To assess the Evans blue-albumin concentration, the optical density of the retinal extract and plasma samples were measured at 620 nm and 740 nm. The retinal vasopermeability was calculated as the quantity of retinal Evans blue normalized to retinal dry weight, plasma Evans blue concentration, and circulation time by using the formula as described^32,44. […]

Experiment [3] concerns VEGF164-stimulated bovine retinal capillary endothelial cell migration. The note with it: 8 h.
Procedure: BRCEC migration assay. Bovine retinal capillary endothelial cells (BRCEC) were isolated and cultured as described 45. […] Cells, between the fifth and ninth passage, were starved overnight in MEM with D-Val and 2% fetal bovine serum. Polycarbonate filters (10 μm pore-size, PVPF; Osmonics Inc., Minnetonka, Minn.) were coated with 100 μg/ml collagen. Quadruplicates with test samples in MEM D-Val (28 μl), and 10^4 cells in MEM D-Val (50 μl) were placed in the lower and upper wells, respectively, of the microchemotaxis chamber (NeuroProbe, Gaithersburg, Md.). After incubating 8 hours at 37° C., the non-migrated cells on the upper surface of the filter were removed, and the filters were stained with Harris' hematoxylin. For each of the test samples, one 400× field per quadrant of each of the quadruplicates was counted. From the total cell number in the 4 fields, the mean and standard error of the quadruplicate wells were calculated. Baseline migration equaled the number of migrated cells with MEM D-Val without any added proteins or peptides. The difference between baseline and the number of migrated cells with VEGF added equals maximal total migration.

pIC50: −log10 of the molar value. Ends that are not written are not given here.

Data on one sequence can be found in patent US20080293626A1, “Pigment epithelium-derived factor as a therapeutic agent for vascular leakage” (The Johns Hopkins University, priority 2003, published 2008).

Regarding “VLLSPLSVATALSALSLGAEQRTESIIHRALYYDLISSPDIHGT [PEDFpep]”, the “effect on VEGF-induced fluorescein leakage / vascular permeability (fluorescein angiography)” value in experiment [1] is on record as “effectively inhibits”. In experiment [2] (24 h, VEGF-induced increase = 100%, mean ±SE), the “inhibition of VEGF-induced retinal vascular permeability (Evans blue-albumin)” value was found to be 83.7±17.1%. The “effect on VEGF-induced vascular permeability by Evans blue assay” value in experiment [2] (qualitative statement) is “effectively inhibited”. The pIC50 (commonly the IC50 on a negative log10 scale, so that one unit is a factor of ten) in experiment [3] is 8.52.
